Test results published in PubChem BioAssay (NCI).
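How tested: cells in 96-well plates exposed to compound for 48 hours at five concentrations. TGI marks complete inhibition of growth.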

Experiments:
Experiment in all cases: inhibition of tumour cell growth, NCI panel, 48 h
OVCAR-3 ovarian = tested on: OVCAR-3 ovarian
HL-60(TB) leukemia = tested on: HL-60(TB) leukemia
MDA-N = tested on: MDA-N
UO-31 renal = tested on: UO-31 renal
ACHN renal = tested on: ACHN renal
NCI-H522 lung = tested on: NCI-H522 lung
SK-MEL-5 melanoma = tested on: SK-MEL-5 melanoma
SN12C renal = tested on: SN12C renal
SR leukemia = tested on: SR leukemia
A498 renal = tested on: A498 renal
EKVX NSCLC = tested on: EKVX NSCLC
OVCAR-5 ovarian = tested on: OVCAR-5 ovarian
NCI-H460 lung = tested on: NCI-H460 lung
MDA-MB-231 breast = tested on: MDA-MB-231 breast
RXF 393 renal = tested on: RXF 393 renal
T-47D breast = tested on: T-47D breast
PC-3 prostate = tested on: PC-3 prostate
HOP-92 NSCLC = tested on: HOP-92 NSCLC
SF-295 CNS = tested on: SF-295 CNS
DU-145 prostate = tested on: DU-145 prostate
NCI-H23 lung = tested on: NCI-H23 lung
COLO 205 colon = tested on: COLO 205 colon
MOLT-4 leukemia = tested on: MOLT-4 leukemia
BT-549 breast = tested on: BT-549 breast
HT29 colon = tested on: HT29 colon
SK-MEL-2 melanoma = tested on: SK-MEL-2 melanoma
K-562 leukemia = tested on: K-562 leukemia
UACC-257 melanoma = tested on: UACC-257 melanoma
KM12 colon = tested on: KM12 colon
HS 578T breast = tested on: HS 578T breast
HCT-116 colon = tested on: HCT-116 colon
MDA-MB-435 = tested on: MDA-MB-435
HCT-15 colon = tested on: HCT-15 colon
M14 melanoma = tested on: M14 melanoma
SK-OV-3 ovarian = tested on: SK-OV-3 ovarian
MCF7 breast = tested on: MCF7 breast
786-0 renal = tested on: 786-0 renal
OVCAR-4 ovarian = tested on: OVCAR-4 ovarian
NCI-H226 lung = tested on: NCI-H226 lung
A549 NSCLC = tested on: A549 NSCLC
UACC-62 melanoma = tested on: UACC-62 melanoma
HOP-62 NSCLC = tested on: HOP-62 NSCLC
MALME-3M melanoma = tested on: MALME-3M melanoma
TK-10 renal = tested on: TK-10 renal
SNB-19 CNS = tested on: SNB-19 CNS
RPMI-8226 leukemia = tested on: RPMI-8226 leukemia
SK-MEL-28 melanoma = tested on: SK-MEL-28 melanoma
CAKI-1 renal = tested on: CAKI-1 renal
CCRF-CEM leukemia = tested on: CCRF-CEM leukemia
IGROV1 ovarian = tested on: IGROV1 ovarian
U251 CNS = tested on: U251 CNS
OVCAR-8 ovarian = tested on: OVCAR-8 ovarian
HCC-2998 colon = tested on: HCC-2998 colon
SW-620 colon = tested on: SW-620 colon
NCI/ADR-RES ovarian = tested on: NCI/ADR-RES ovarian
SNB-75 CNS = tested on: SNB-75 CNS
LOX IMVI melanoma = tested on: LOX IMVI melanoma
SF-268 CNS = tested on: SF-268 CNS
SF-539 CNS = tested on: SF-539 CNS

O=c1[nH]nc(Cc2ccc(Cl)cc2)n1/N=C\CC/C=N\n1c(Cc2ccc(Cl)cc2)n[nH]c1=O
TGI (OVCAR-3 ovarian): > 100 µM
TGI (HL-60(TB) leukemia): > 100 µM
TGI (MDA-N): > 100 µM
TGI (UO-31 renal): > 100 µM
TGI (ACHN renal): > 100 µM
TGI (NCI-H522 lung): > 100 µM
TGI (SK-MEL-5 melanoma): > 100 µM
TGI (SN12C renal): > 100 µM
TGI (SR leukemia): 14.8 µM
TGI (A498 renal): > 100 µM
TGI (EKVX NSCLC): 78.5 µM
TGI (OVCAR-5 ovarian): > 100 µM
TGI (NCI-H460 lung): > 100 µM
TGI (MDA-MB-231 breast): > 58.4 µM
TGI (RXF 393 renal): 76.1 µM
TGI (T-47D breast): > 100 µM
TGI (PC-3 prostate): > 100 µM
TGI (HOP-92 NSCLC): > 100 µM
TGI (SF-295 CNS): > 78.1 µM
TGI (DU-145 prostate): > 100 µM
TGI (NCI-H23 lung): > 100 µM
TGI (COLO 205 colon): > 100 µM
TGI (MOLT-4 leukemia): > 96.5 µM
TGI (BT-549 breast): > 83.2 µM
TGI (HT29 colon): > 100 µM
TGI (SK-MEL-2 melanoma): > 69.7 µM
TGI (K-562 leukemia): > 100 µM
TGI (UACC-257 melanoma): > 100 µM
TGI (KM12 colon): > 100 µM
TGI (HS 578T breast): 36.5 µM
TGI (HCT-116 colon): > 100 µM
TGI (MDA-MB-435): > 100 µM
TGI (HCT-15 colon): > 100 µM
TGI (M14 melanoma): > 100 µM
TGI (SK-OV-3 ovarian): > 100 µM
TGI (MCF7 breast): > 100 µM
TGI (786-0 renal): > 53.5 µM
TGI (OVCAR-4 ovarian): > 100 µM
TGI (NCI-H226 lung): > 71 µM
TGI (A549 NSCLC): > 100 µM
TGI (UACC-62 melanoma): 45.7 µM
TGI (HOP-62 NSCLC): 27.5 µM
TGI (MALME-3M melanoma): > 84.7 µM
TGI (TK-10 renal): > 100 µM
TGI (SNB-19 CNS): > 92.8 µM
TGI (RPMI-8226 leukemia): > 100 µM
TGI (SK-MEL-28 melanoma): 96.9 µM
TGI (CAKI-1 renal): > 100 µM
TGI (CCRF-CEM leukemia): > 88.9 µM
TGI (IGROV1 ovarian): 41.3 µM
TGI (U251 CNS): 46 µM
TGI (OVCAR-8 ovarian): 37 µM
TGI (HCC-2998 colon): > 100 µM
TGI (SW-620 colon): > 100 µM
TGI (NCI/ADR-RES ovarian): > 66.3 µM
TGI (SNB-75 CNS): 23.1 µM
TGI (LOX IMVI melanoma): > 100 µM
TGI (SF-268 CNS): 37.9 µM
TGI (SF-539 CNS): 40.6 µM
